The target of assay [1] is T1, Recombinant full-length human IDO1 (Homo sapiens, UniProt P14902).
T1 construct: Recombinant full-length human IDO1 with a N-terminal hexahistidine tag; hexahistidine (N); made in house; host or cells: E. coli
Nature of the assay: IDO1 enzymatic assay (NFK quantified by LCMS). Format: biochemical. Particulars: 2 nM enzyme, 5 μM L-tryptophan, 30 min pre-incubation, pH6.5; mean if measured multiple times; read-out: hIDO activity (IC50 in nM). The method, then:
1) Testing Compounds for IDO Inhibitory Activity in an IDO1 Enzymatic Assay:
Recombinant full-length human IDO1 with a N-terminal hexahistidine tag expressed in E. coli and purified to homogeneity is incubated at a final concentration of 2 nM in assay buffer consisting of 37.5 mM phosphate buffer at pH6.5 supplemented with 10 mM ascorbic acid, 0.45 μM methylene blue, 50 U/ml catalase, 0.01% BSA, and 0.01% Tween 20 (protocol modified from Seegers et al, JBS 2014). Example compounds are serially diluted in DMSO, further diluted in phosphate buffer, and added to the enzyme at final concentrations ranging from 10 μM to 0.5 nM. The final DMSO concentration is 0.6%. Following a pre-incubation of 30 minutes at RT, the reaction is started by the addition of L-tryptophan at a final concentration of 5 μM in assay buffer. After 30 minutes of incubation at RT, 3 μL of the 20 μl reaction mixture are transferred to a 384 deep well plate containing 25 μL of deionized water. 100 μl of 200 nM L-Tryptophan-(indole-d5) in cold 100% methanol are added followed by a 10 minutes centrifugation at 3220×g at 4° C. An additional 75 μL of deionized water are then added followed by a 10 minutes centrifugation at 3220×g at 4° C. The product of the reaction N′-Formylkynurenine (NFK) is quantified by LCMS and normalized to the L-Tryptophan-(indole-d5) signal. Samples with 0.6% DMSO (0% effect) and a TDO/IDO inhibitor (100% effect) are used as control samples to set the parameters for the non-linear regression necessary for the determination of the half-maximal inhibitory concentration (IC50) for each compound. For each compound concentration the percentage of activity compared to 0% and 100% effect is calculated as average±STDEV (each concentration measured in duplicate). IC50 values and curves are generated with XLfit software (IDBS) using Dose-Response One Site model 203 (four parameter logistic curve model). The calculated IC50 values may fluctuate depending on the daily assay performance. Fluctuations of this kind are known to those skilled in the art. When compounds are measured multiple times, mean values are given.

The target of assay [2] is T2, Recombinant human TDO comprising amino acids 19-407 (Homo sapiens, UniProt P48775).
T2 construct: human TDO comprising amino acids 19-407; hexahistidine (N); made in house; host or cells: E. coli
T2 sequence (P48775 19-406 limits assumed): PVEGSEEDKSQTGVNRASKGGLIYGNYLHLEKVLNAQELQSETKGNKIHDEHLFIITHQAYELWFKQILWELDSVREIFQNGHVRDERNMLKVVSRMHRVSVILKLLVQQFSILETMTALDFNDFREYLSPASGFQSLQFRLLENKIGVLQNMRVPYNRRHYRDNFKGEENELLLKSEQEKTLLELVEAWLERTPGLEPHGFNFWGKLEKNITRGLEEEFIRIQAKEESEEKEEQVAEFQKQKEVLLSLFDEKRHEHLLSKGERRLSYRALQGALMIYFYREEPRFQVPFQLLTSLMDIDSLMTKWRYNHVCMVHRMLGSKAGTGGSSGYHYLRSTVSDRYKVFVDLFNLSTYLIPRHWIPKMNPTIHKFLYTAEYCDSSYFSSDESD
Nature of the assay: TDO2 enzymatic assay (NFK quantified by LCMS). In kind it is biochemical. Particulars: 15 nM enzyme, 200 μM L-tryptophan, 30 min pre-incubation, pH7; mean if measured multiple times; read-out: hTDO activity (IC50 in nM). The method, then: 2) Testing Compounds for TDO Inhibitory Activity in a TDO2 Enzymatic Assay:
Recombinant human TDO comprising amino acids 19-407 with a N-terminal hexahistidine tag expressed in E. coli and purified to homogeneity is incubated at a final concentration of 15 nM in assay buffer consisting of 75 mM phosphate buffer at pH7 supplemented with 100 μM ascorbic acid, 50 U/ml Catalase, 0.01% BSA, and 0.01% Tween 20 (protocol modified from Seegers et al, JBS 2014). Example compounds are serially diluted in DMSO, further diluted in phosphate buffer, and added to the reaction mixture at final concentrations ranging from 10 μM to 0.5 nM. The final DMSO concentration is 0.6%. Following a pre-incubation of 30 minutes at RT, the reaction is started by the addition of L-tryptophan at a final concentration of 200 μM in assay buffer. After 30 minutes of incubation at RT, 3 μL of the reaction mixture are transferred to a 384 deep well plate containing 25 μL of deionized water. 100 μl of 200 nM L-Tryptophan-(indole-d5) in cold 100% methanol are added followed by a 10 minutes centrifugation at 3220×g at 4° C. An additional 75 μL of deionized water are then added followed by a 10 minutes centrifugation at 3220×g at 4° C. The product of the reaction N′-Formylkynurenine (NFK) is quantified by LCMS and normalized to the L-Tryptophan-(indole-d5) signal. Samples with 0.6% DMSO (0% effect) and a TDO/IDO inhibitor (100% effect) are used as control samples to set the parameters for the non-linear regression necessary for the determination of the half-maximal inhibitory concentration (IC50) for each compound. For each compound concentration the percentage of activity compared to 0% and 100% effect is calculated as average±STDEV (each concentration measured in duplicate). IC50 values and curves are generated with XLfit software (IDBS) using Dose-Response One Site model 203 (four parameter logistic curve model). The calculated IC50 values may fluctuate depending on the daily assay performance. Fluctuations of this kind are known to those skilled in the art. When compounds are measured multiple times, mean values are given.

The next assay concerns the target T3, IDO1 in SKOV3 cells (Homo sapiens, UniProt P14902).
T3 construct: SKOV3 cells (NCI, No. 0503405) which upregulate IDO1 after stimulation with IFNγ; host or cells: SKOV3 cells stimulated with IFNγ
The assay can be described thus: Cell-based IDO inhibitory activity in IFNγ-stimulated SKOV3 cells (NFK + kynurenine by LCMS). The conditions noted are these: IFNγ 50 ng/ml, 200 uM L-tryptophan, 24 hours. The source says: 3) Testing Compounds for IDO/TDO Inhibitory Activity and Toxicity in Cell-Based Assays
SW48 cells (ATCC, CCL-231) are used to measure compounds for TDO inhibitory activity and are routinely maintained in DMEM high glucose/GlutaMAX™/pyruvate 90% (v/v), FCS 10% (v/v), Penicilin/streptomycin 1% (v/v). SKOV3 cells (NCI, No. 0503405) which upregulate IDO1 after stimulation with IFNγ are used to measure compounds for IDO inhibitory activity. SKOV3 cells are routinely maintained in RPMI 90% (v/v), FCS 10% (v/v), Penicilin/streptomycin 1% (v/v). SW48 or SKOV3 cells are seeded in 384 well plates at a density of 8000 cells in 45 ul per well or 4000 cells in 45 ul per well, respectively. Plates are incubated at 37° C./5% CO2 for 24 hours. On the next day, 10 ul compound in serial dilutions (tested concentration range 10 uM-40 nM) and 200 uM L-tryptophan are added (SKV03 receive in addition IFNγ at a final concentration of 50 ng/ml). After 24 hours of incubation at 37° C./5% CO2, 3 ul of the supernatant per well is transferred to 25 ul H2O per well in a 384 deep well plate and 25 ul of the supernatant per well is transferred to waste. The SKOV3 and SW48 cell plates with 25 ul supernatant per well remaining are used to measure viability (see below). The 384 deep well plate containing 3 ul supernatant and 25 ul H2O per well are further processed for LCMS: After the addition of 100 ul L-tryptophan-(indole-d5) (Sigma 615862) at 200 nM in methanol, the 384 deep well plates are centrifuged for 10 minutes at 3220×g at 4° C., 75 ul H2O is added per well and plates centrifuged again for 10 minutes at 3220×g at 4° C. N-formylkynurenine and kynurenine are quantified by LCMS, normalized to the internal standard L-tryptophan-(indole-d5) and the sum is calculated. Samples with 0.2% DMSO (0% effect) and a TDO/IDO inhibitor (100% effect) are used as control samples to set the parameters for the non-linear regression necessary for the determination of the IC50 for each compound. For each compound concentration the percentage of activity compared to 0% and 100% effect is calculated as average±STDEV (each concentration measured in duplicate). IC50 values and curves are generated with XLfit software (IDBS) using Dose-Response One Site model 203. The calculated IC50 values may fluctuate depending on the daily cellular assay performance. Fluctuations of this kind are known to those skilled in the art. When compounds are measured multiple times, mean values are given.

The structures appear in SMILES notation.

T3 sequence (P14902 whole entry): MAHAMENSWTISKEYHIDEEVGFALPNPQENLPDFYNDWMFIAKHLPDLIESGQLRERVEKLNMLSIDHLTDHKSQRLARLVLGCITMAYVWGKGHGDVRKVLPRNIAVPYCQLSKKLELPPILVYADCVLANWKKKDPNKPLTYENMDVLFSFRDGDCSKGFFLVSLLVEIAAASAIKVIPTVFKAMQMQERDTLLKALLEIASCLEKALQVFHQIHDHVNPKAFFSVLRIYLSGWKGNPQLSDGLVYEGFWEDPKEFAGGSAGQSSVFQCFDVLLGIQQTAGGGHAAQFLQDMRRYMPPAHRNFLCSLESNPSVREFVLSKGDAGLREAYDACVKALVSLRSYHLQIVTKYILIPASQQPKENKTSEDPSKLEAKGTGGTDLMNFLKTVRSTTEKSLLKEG
T1 sequence (P14902 whole entry): as above

With `OC(c1cn(-c2ccc(OCC3(F)COC3)cc2)nn1)c1c(C2CC2)ncc2cncn12` (racemic) [Example 16, rac-(6-Cyclopropyl-imidazo[1,5-a]pyrazin-5-yl)-{1-[4-(3-fluoro-oxetan-3-ylmethoxy)-phenyl]-1H-[1,2,3]triazol-4-yl}-methanol], the half-inhibitory concentration (IC50) is 33.2 nM in assay [1], over 10200 nM in assay [2] and 94.6 nM at IDO1 in SKOV3 cells.

In the case of `COc1ccc(-n2cc(C(O)c3c(C4CC4)ncc4cncn34)nn2)cc1` (racemic) [Example 17, rac-(6-Cyclopropyl-imidazo[1,5-a]pyrazin-5-yl)-[1-(4-methoxy-phenyl)-1H-[1,2,3]triazol-4-yl]-methanol], the half-inhibitory concentration (IC50) in assay [1] was 20.4 nM; in assay [2], over 10200 nM; at IDO1 in SKOV3 cells, 172 nM.

With `CC(C)(O)COc1ccc(-n2cc(C(O)c3c(C4CC4)ncc4cncn34)nn2)cc1` (racemic) [Example 18, rac-1-(4-{4-[(6-Cyclopropyl-imidazo[1,5-a]pyrazin-5-yl)-hydroxy-methyl]-[1,2,3]triazol-1-yl}-phenoxy)-2-methyl-propan-2-ol], the figures for the IC50 (in assay [1]; in assay [2]; at IDO1 in SKOV3 cells) were 33.2 nM, over 10200 nM and 140 nM, respectively.

`OC(c1cn(-c2ccc(OCC3(F)COC3)cc2)nn1)c1c(C2CC2)ccc2cncn12` (racemic) [Example 19, rac-(6-Cyclopropyl-imidazo[1,5-a]pyridin-5-yl)-{1-[4-(3-fluoro-oxetan-3-ylmethoxy)-phenyl]-1H-[1,2,3]triazol-4-yl}-methanol]: the IC50 in assay [1] is 13.7 nM; in assay [2], over 10200 nM; on IDO1 in SKOV3 cells, 11.6 nM.

Regarding `COc1ccc(-n2nnc(C(O)c3c(Cl)ccc4cncn34)c2C)cc1` (racemic) [Example 20, rac-(6-Chloro-imidazo[1,5-a]pyridin-5-yl)-[1-(4-methoxy-phenyl)-5-methyl-1H-[1,2,3]triazol-4-yl]-methanol], the IC50 came to 2.78 nM in assay [1], 5260 nM in assay [2] and 14.5 nM at IDO1 in SKOV3 cells.

For the molecule `CCc1ncc2cncn2c1C(O)c1cn(-c2cc(F)c(OC)cc2F)nn1` (racemic) [Example 32, rac-[1-(2,5-Difluoro-4-methoxy-phenyl)-1H-[1,2,3]triazol-4-yl]-(6-ethyl-imidazo[1,5-a]pyrazin-5-yl)-methanol], the half-inhibitory concentration (IC50) is 14.3 nM in assay [1], over 10200 nM in assay [2] and 70.2 nM on IDO1 in SKOV3 cells.

Take `CCc1ccc2cncn2c1C(O)c1cn(-c2ccc(OC)cc2)nn1` (racemic) [Example 34, rac-(6-Ethyl-imidazo[1,5-a]pyridin-5-yl)-[1-(4-methoxy-phenyl)-1H-[1,2,3]triazol-4-yl]-methanol]: the IC50 in assay [1] was 2.97 nM; in assay [2], over 10200 nM; at IDO1 in SKOV3 cells it was 14.5 nM.

On to `CCc1ccc2cncn2c1C(O)c1cn(-c2cc(F)c(OC)cc2F)nn1` (racemic) [Example 35, rac-[1-(2,5-Difluoro-4-methoxy-phenyl)-1H-[1,2,3]triazol-4-yl]-(6-ethyl-imidazo[1,5-a]pyridin-5-yl)-methanol], for which the concentration for half-maximal inhibition (IC50) is 3.39 nM in assay [1], over 10200 nM in assay [2] and 3.05 nM at IDO1 in SKOV3 cells.

Take `CCc1c(C(O)c2c(Cl)ccc3cncn23)nnn1-c1ccc(OC)cc1` (racemic) [Example 37, rac-(6-Chloro-imidazo[1,5-a]pyridin-5-yl)-[5-ethyl-1-(4-methoxy-phenyl)-1H-[1,2,3]triazol-4-yl]-methanol]: the IC50 is 5.28 nM in assay [1], 6640 nM in assay [2] and 39 nM at IDO1 in SKOV3 cells.

For `Cc1c(C(O)c2c(Cl)ccc3cncn23)nnn1-c1ccccc1` (racemic) [Example 38, rac-(6-Chloro-imidazo[1,5-a]pyridin-5-yl)-(5-methyl-1-phenyl-1H-[1,2,3]triazol-4-yl)-methanol], the IC50 was found to be 5.43 nM in assay [1], 4710 nM in assay [2] and 86 nM at IDO1 in SKOV3 cells.

As for `COc1cc(F)c(-n2nnc(C(O)c3c(Cl)ccc4cncn34)c2C)cc1Cl` (racemic) [Example 39, rac-[1-(5-Chloro-2-fluoro-4-methoxy-phenyl)-5-methyl-1H-[1,2,3]triazol-4-yl]-(6-chloro-imidazo[1,5-a]pyridin-5-yl)-methanol], the half-maximal inhibitory concentration (IC50) in assay [1] turned out to be 5.26 nM; in assay [2] it was 7940 nM; on IDO1 in SKOV3 cells, 6.94 nM.

With `Cc1c(C(O)c2c(Cl)ccc3cncn23)nnn1-c1ccc(O)c(Cl)c1` (racemic) [Example 43, rac-2-Chloro-4-{4-[(6-chloro-imidazo[1,5-a]pyridin-5-yl)-hydroxy-methyl]-5-methyl-[1,2,3]triazol-1-yl}-phenol], the IC50 in assay [1] is 3.88 nM; in assay [2], 832 nM; at IDO1 in SKOV3 cells, 64.2 nM.

By IC50 is commonly meant the point on the concentration scale where inhibition reaches its midpoint.
